Reference: patent US7056491B2, “Monoterpenes and sesquiterpenes as chemotherapeutic and radiation sensitizers and immunomodulators” (Wisconsin Alumni Research Foundation, priority 2000, dated 2006)

Tests used:
Fas Ligand = experiment: Membrane bound Fas ligand staining by flow cytometry; format: cell-based, human
Procedure: Referring to FIG. 17, glioma cell lines (T98G, U251, U87 and U353) were treated with 0.3 mM perillyl alcohol (POH) for 72 hours and the cells were harvested using cell dissociation solution. The resulting cell pellet was stained with biotinylated antibody specific to the human Fas-Ligand (Pharmingen), or IgG1 k isotype control for 45 minutes at 4° C. The cells were washed and incubated with streptavidin conjugated phycoerythrin washed and analyzed by flow cytometry.
The cells were harvested using cell dissociation solution, and the resulting cell pellet was washed and incubated with biotinylated anti-human antibody, which served as a control to eliminate non-specific binding. Following the primary antibody incubation the cells were washed and subsequently stained with secondary antibody conjugated to phycoerythrin (PE) (PharMingen) and antibody to CD95 directly conjugated to allophycocyanin (APC). The stained cells were analyzed using a Beckton-Dickinson FACStar plus and the results were acquired using CELLquest software.
Subconfluent cultures of the indicated glioma (T98G, U251, U353, U87MG), prostate (DU145, PC3), colon (DLD-1) and melanoma (Mel5) cell lines were treated with varying concentrations of POH (0.1 mM–1 mM POH) dissolved in medium for 72 hours. […] The stained cells were analyzed using a Beckton-Dickinson FACStar plus and the results were acquired using CELLquest. […]

[1] = system: T98G and U87MG cell lines; experiment: Inhibition of Fas-induced apoptosis by antagonistic antibody ZB4; format: cell-based; details: 1 mM POH with CH11, absence of cycloheximide; inhibited by ZB4
Procedure: Referring to FIG. 26, semiconfluent culture plates T98G and U87MG cell lines were treated with the 1 mM POH in the presence or absence of the anti-CD95 antibody CH11 (100 ng/ml), cycloheximide (CX), the Fas-induced apoptosis blocking antibody ZB4 (2 ug/ml) or a combination of all for a period of 72 hours. Viability analysis was carried out using propidium iodide solution by flow cytometric analysis. Each graphed point in the figure represents the average values of duplicate samples.

T98G cells = experiment: Clonogenic survival, POH pretreatment then doxorubicin, T98G; format: cell-based, human; details: POH 0.1 mM–0.5 mM 48 hours then doxorubicin 0.01 uM–0.1 uM 48 hours
Procedure: Referring to FIG. 29, subconfluent cells of T98G cells were treated with varying concentrations of perillyl alcohol (0.1 mM–0.5 mM) for 48 hours and subsequently treated with the indicated dose of doxorubicin (0.01 uM–0.1 uM) for 48 hours. At the end of the treatment, POH-pretreated and untreated cells in the presence and absence of doxorubicin, were harvested, washed with PBS, plated at the desired cell number and incubated for two weeks. The colonies were stained with crystal violet and quantitated. Survival was determined as the ratio of plating efficiencies for each irradiated group to that of the untreated control. […] Doxorubicin at concentrations over 0.1 uM appeared to be toxic to the cells.

C=C(C)[C@@H]1CC=C(CO)CC1 [POH, Perillyl alcohol]
Fas Ligand in glioma, prostate, colon and melanoma cell lines (Fas Ligand; 0.1 mM–1 mM POH 72 hours, more pronounced at lower concentrations): upregulation of the Fas Ligand | membrane bound Fas ligand on glioma cell lines (Fas Ligand; T98G, U251, U87, U353, 0.3 mM POH 72 hours): upregulation | Fas-mediated apoptosis [1]: augmented Fas-mediated apoptosis | sensitization to doxorubicin-induced cell death (T98G cells): dose-dependent sensitization
